In patent US20210382058A1, “PATIENT SELECTION FOR TREATMENT OF MYC POSITIVE CANCERS WITH INDENOISOQUINOLINES” (Purdue Research Foundation, priority 2020, published 2021):
Read-outs that look alike come from different tables or passages of the source.

Columns and labels:
NCI-60 cancer cell lines = test: NCI-60 cancer cell line drug screen (GI50, MGM); assay type: cell-based, human; conditions: Homo sapiens; for GI50: read-out: Antiproliferative Activities [GI50 (μM)]
Procedure: Cancer cells were incubated with the test compounds at five concentrations ranging from 100 μM to 10 nM for 48 h. […] The approximate average of GI50 values across the entire panel of NCI-60 cancer cell lines for each compound was recorded as the MGM value.

human topoisomerase I = target: T1, human topoisomerase I (Homo sapiens, UniProt P11387); conditions: relative topoisomerase I inhibition levels, previously determined, six levels (0 - 5, +++++ = 5); cited from earlier work
T1 sequence (P11387 1-765): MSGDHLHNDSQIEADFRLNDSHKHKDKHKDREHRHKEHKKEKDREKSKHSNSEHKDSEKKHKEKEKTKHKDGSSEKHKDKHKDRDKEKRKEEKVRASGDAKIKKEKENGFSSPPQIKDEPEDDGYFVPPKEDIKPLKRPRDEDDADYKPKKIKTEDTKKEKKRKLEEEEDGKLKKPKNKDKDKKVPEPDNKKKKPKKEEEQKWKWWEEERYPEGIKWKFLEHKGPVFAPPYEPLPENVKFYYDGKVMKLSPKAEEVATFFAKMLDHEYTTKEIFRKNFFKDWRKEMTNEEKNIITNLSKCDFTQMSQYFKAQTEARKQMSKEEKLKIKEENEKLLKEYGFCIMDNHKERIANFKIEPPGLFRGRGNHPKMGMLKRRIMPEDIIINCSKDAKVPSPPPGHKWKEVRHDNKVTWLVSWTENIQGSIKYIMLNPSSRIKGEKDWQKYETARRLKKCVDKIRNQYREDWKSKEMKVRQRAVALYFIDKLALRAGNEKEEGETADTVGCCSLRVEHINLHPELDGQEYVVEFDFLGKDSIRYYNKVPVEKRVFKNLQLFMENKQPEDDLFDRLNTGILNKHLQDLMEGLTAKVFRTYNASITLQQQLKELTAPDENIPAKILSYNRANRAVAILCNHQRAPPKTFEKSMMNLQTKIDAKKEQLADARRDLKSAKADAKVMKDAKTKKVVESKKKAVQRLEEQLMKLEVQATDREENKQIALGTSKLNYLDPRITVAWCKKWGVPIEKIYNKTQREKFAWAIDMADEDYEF

Structure (SMILES): CNCCCn1c2c(c3ccc([N+](=O)[O-])cc3c1=O)C(=O)c1cc(OC)cnc1-2 [Compound 10]
- GI50 (NCI-60 cancer cell lines; 786-0, Renal Cancer, 786-0): 0.04 µM
- GI50 (NCI-60 cancer cell lines; A498, Renal Cancer, A498): 0.03 µM
- GI50 (NCI-60 cancer cell lines; A549, Non-Small Cell Lung Cancer, A549/ATCC): 0.07 µM
- GI50 (NCI-60 cancer cell lines; ACHN, Renal Cancer, ACHN): 0.04 µM
- GI50 (NCI-60 cancer cell lines; BT-549, Breast Cancer, BT-549): 0.37 µM
- GI50 (NCI-60 cancer cell lines; CAKI-1, Renal Cancer, CAKI-1): 0.03 µM
- GI50 (NCI-60 cancer cell lines; CCRF-CEM, Leukemia, CCRF-CEM): 0.04 µM
- GI50 (NCI-60 cancer cell lines; COLO 205, Colon Cancer, COLO 205): 0.06 µM
- GI50 (NCI-60 cancer cell lines; DU-145, Prostate Cancer, DU-145): 0.05 µM
- GI50 (NCI-60 cancer cell lines; EKVX, Non-Small Cell Lung Cancer, EKVX): 0.27 µM
- GI50 (NCI-60 cancer cell lines; HCC 2998, Colon Cancer, HCC-2998): 0.2 µM
- GI50 (NCI-60 cancer cell lines; HCT-15, Colon Cancer, HCT-15): 0.12 µM
- GI50 (NCI-60 cancer cell lines; HCT-116, Colon Cancer, HCT-116): 0.03 µM
- GI50 (NCI-60 cancer cell lines; HL-60, Leukemia, HL-60(TB)): 0.04 µM
- GI50 (NCI-60 cancer cell lines; HOP-92, Non-Small Cell Lung Cancer, HOP-92): 0.24 µM
- GI50 (NCI-60 cancer cell lines; HT-29, Colon Cancer, HT29): 0.06 µM
- GI50 (NCI-60 cancer cell lines; Hs-578T, Breast Cancer, HS 578T): 1.17 µM
- GI50 (NCI-60 cancer cell lines; IGROV-1, Ovarian Cancer, IGROV1): 0.21 µM
- GI50 (NCI-60 cancer cell lines; K562, Leukemia, K-562): 0.04 µM
- GI50 (NCI-60 cancer cell lines; KM12, Colon Cancer, KM12): 0.16 µM
- GI50 (NCI-60 cancer cell lines; LOX IMVI, Melanoma, LOX IMVI): 0.03 µM
- GI50 (NCI-60 cancer cell lines; Leukemia, SR): 0.01 µM
- GI50 (NCI-60 cancer cell lines; MCF7, Breast Cancer, MCF7): 0.01 µM
- GI50 (NCI-60 cancer cell lines; MDA-MB-231, Breast Cancer, MDA-MB-231/ATCC): 0.27 µM
- GI50 (NCI-60 cancer cell lines; MDA-MB-435, Melanoma, MDA-MB-435): 0.15 µM
- GI50 (NCI-60 cancer cell lines; MDA-MB-468, Breast Cancer, MDA-MB-468): 0.03 µM
- GI50 (NCI-60 cancer cell lines; MOLT-4, Leukemia, MOLT-4): 0.03 µM
- GI50 (NCI-60 cancer cell lines; Malme-3M, Melanoma, MALME-3M): 0.18 µM
- GI50 (NCI-60 cancer cell lines; Melanoma, M14): 0.04 µM
- GI50 (NCI-60 cancer cell lines; NCI-H23, Non-Small Cell Lung Cancer, NCI-H23): 0.04 µM
- GI50 (NCI-60 cancer cell lines; NCI-H226, Non-Small Cell Lung Cancer, NCI-H226): 0.09 µM
- GI50 (NCI-60 cancer cell lines; NCI-H322M, Non-Small Cell Lung Cancer, NCI-H322M): 0.16 µM
- GI50 (NCI-60 cancer cell lines; NCI-H460, Non-Small Cell Lung Cancer, NCI-H460): 0.02 µM
- GI50 (NCI-60 cancer cell lines; NCI-H522, Non-Small Cell Lung Cancer, NCI-H522): 0.08 µM
- GI50 (NCI-60 cancer cell lines; OVCAR-3, Ovarian Cancer, OVCAR-3): 0.17 µM
- GI50 (NCI-60 cancer cell lines; OVCAR-4, Ovarian Cancer, OVCAR-4): 0.17 µM
- GI50 (NCI-60 cancer cell lines; OVCAR-5, Ovarian Cancer, OVCAR-5): 0.14 µM
- GI50 (NCI-60 cancer cell lines; OVCAR-8, Ovarian Cancer, OVCAR-8): 0.09 µM
- GI50 (NCI-60 cancer cell lines; Ovarian Cancer, NCl/ADR-RES): 0.06 µM
- GI50 (NCI-60 cancer cell lines; Prostate Cancer, PC-3): 0.13 µM
- GI50 (NCI-60 cancer cell lines; RPMI-8226, Leukemia, RPMI-8226): 0.08 µM
- GI50 (NCI-60 cancer cell lines; RXF 393, Renal Cancer, RXF 393): 0.07 µM
- GI50 (NCI-60 cancer cell lines; Renal Cancer, U0-31): 0.03 µM
- GI50 (NCI-60 cancer cell lines; SF-268, CNS Cancer, SF-268): 0.07 µM
- GI50 (NCI-60 cancer cell lines; SF-295, CNS Cancer, SF-295): 0.03 µM
- GI50 (NCI-60 cancer cell lines; SF-539, CNS Cancer, SF-539): 0.05 µM
- GI50 (NCI-60 cancer cell lines; SK-MEL-2, Melanoma, SK-MEL-2): 0.35 µM
- GI50 (NCI-60 cancer cell lines; SK-MEL-5, Melanoma, SK-MEL-5): 0.11 µM
- GI50 (NCI-60 cancer cell lines; SK-MEL-28, Melanoma, SK-MEL-28): 0.39 µM
- GI50 (NCI-60 cancer cell lines; SK-OV-3, Ovarian Cancer, SK-OV-3): 0.06 µM
- GI50 (NCI-60 cancer cell lines; SN12C, Renal Cancer, SN12C): 0.05 µM
- GI50 (NCI-60 cancer cell lines; SNB-19, CNS Cancer, SNB-19): 0.04 µM
- GI50 (NCI-60 cancer cell lines; SNB-75, CNS Cancer, SNB-75): 0.13 µM
- GI50 (NCI-60 cancer cell lines; SW-620, Colon Cancer, SW-620): 0.03 µM
- GI50 (NCI-60 cancer cell lines; T47D, Breast Cancer, T-47D): 0.03 µM
- GI50 (NCI-60 cancer cell lines; TK-10, Renal Cancer, TK-10): 0.32 µM
- GI50 (NCI-60 cancer cell lines; U-251, CNS Cancer, U251): 0.04 µM
- GI50 (NCI-60 cancer cell lines; UACC-257, Melanoma, UACC-257): 0.18 µM
- mean GI50 across NCI-60 panel (MGM) (NCI-60 cancer cell lines; average of GI50 values across the entire panel of NCI-60 cancer cell lines): 74 nM
- Top1 Inhibiton (human topoisomerase I): +++ (strong inhibition, +++, MYC expression inhibited at 0.5 to 1.0 μM)
